Reference: patent US9012489B2, “Phenyl-3-aza-bicyclo[3.1.0]hex-3-yl-methanones and the use thereof as medicament” (Boehringer Ingelheim International GmbH, priority 2011, dated 2015)

Biological target: T1, GlyT1 transporter (Homo sapiens, UniProt P48067)
T1 construct: endogenously expressing the GlyT1 transporter; host or cells: SK-N-MC human neuroblastoma cells
T1 sequence (P48067 1-706): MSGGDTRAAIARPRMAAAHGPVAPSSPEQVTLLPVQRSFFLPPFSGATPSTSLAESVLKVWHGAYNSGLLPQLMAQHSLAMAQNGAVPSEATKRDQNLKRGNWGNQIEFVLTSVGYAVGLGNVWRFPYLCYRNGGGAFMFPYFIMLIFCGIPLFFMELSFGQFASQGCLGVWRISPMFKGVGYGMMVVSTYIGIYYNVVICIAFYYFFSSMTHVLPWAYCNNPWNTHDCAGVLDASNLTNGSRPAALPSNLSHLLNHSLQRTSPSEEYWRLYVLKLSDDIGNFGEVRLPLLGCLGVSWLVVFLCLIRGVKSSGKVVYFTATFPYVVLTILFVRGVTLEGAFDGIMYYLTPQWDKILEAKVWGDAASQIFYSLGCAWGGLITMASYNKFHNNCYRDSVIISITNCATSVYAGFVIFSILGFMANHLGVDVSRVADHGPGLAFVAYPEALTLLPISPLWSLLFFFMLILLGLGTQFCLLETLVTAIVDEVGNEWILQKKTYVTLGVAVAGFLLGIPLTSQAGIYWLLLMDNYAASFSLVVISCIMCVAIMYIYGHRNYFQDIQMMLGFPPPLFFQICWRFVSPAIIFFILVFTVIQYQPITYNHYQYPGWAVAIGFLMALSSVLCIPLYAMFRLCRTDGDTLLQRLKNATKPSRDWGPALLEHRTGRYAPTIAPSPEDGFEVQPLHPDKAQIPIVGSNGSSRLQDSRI
Assay: GlyT1 assay: 3H-glycine uptake into SK-N-MC cells (Cytostar-T format)
Assay type: cell-based
Details: glycine uptake in human SK-N-MC cells endogenously expressing GlyT1; 500 nM glycine, 1% DMSO, signal recorded over 60 min
Excerpt: Cells expressing either endogenously the GlyT1 transporter like JAR cells (human placental choriocarcinoma cells; e.g. WO 2008/002583) or SK-N-MC cells (human neuroblastoma cells; Depoortere et al., 2005. Neuropsychopharmacology 30:1963-1985) or primary neurons or cells which have been transfected with a plasmid encoding the cDNA of a functional GlyT1 transporter and stably or transiently express GlyT1 (e.g. WO 2006/08200) can be used to monitor glycine uptake in cells. Different protocols for determination of the glycine uptake into the cells described above can be applied in order to identify and rank compounds which interfere with glycine uptake in the selected cell.
Compounds outlined in the examples below were characterized using human SK-N-MC cells (ATCC number HTB-10) endogenously expressing the GlyT1 transporter which is responsible for the uptake of glycine into these cells and the uptake of glycine into these cells is monitored using the Cytostar-T assay format (GE Healthcare, RPNQ0162) which is based on the radioactive glycine taken up by the cells and brought into proximity with the scintillant contained within the base of the plate. The radioactive decay is converted to a light signal based on the integration of the scintillation matrix into the assay plate. The uptake is recorded as kinetic and the slope of the measured counts over time is used to calculate IC50.
In detail, SK-N-MC cells are seeded into 96-well Cytostar-T assay plates at a density of 200,000 cells/well and grown for 16-18 hours to confluence in growth medium as recommended by ATCC. Before starting the assay, cells are washed once with HBSS (Hank's buffered salt solution; Sigma, H8264) cont. 5 mM alanine (referred in here as HBSS/Ala) and afterwards the following reagents are added: • 1. 80 μl/well HBSS/Ala • 2. 20 μl/well of HBSS/Ala containing 6× the concentration of compound in 6% DMSO • 3. approx. 5-10 min incubation • 4. 20 μl/well 3 μM glycine (^3H-glycine (Perkin Elmer, NET004001MC, specific activity: 52 Ci/mmol; diluted 1:1 with unlabelled glycine) in HBSS/Ala.
In the final assay, glycine concentration is 500 nM (250 nM derived from the ^3H-glycine Perkin Elmer, 250 nM unlabelled glycine), DMSO concentration is 1%.
The assay plate is immediately after addition of the ^3H-glycine placed into a Micro-Beta Counter (Perkin Elmer) and the signal is recorded over 60 min.
To calculate uptake, the slope in the linear range of the kinetics is determined using GraphPadPrism and for the different slopes at the selected concentrations IC50 are calculated by curve fitting using the software GraphPadPrism.
Maximal glycine uptake in every experiment is determined by incubation of SK-N-MC cells with substrate but without inhibitor. Unspecific uptake of glycine by the cells is determined by incubating the cells with substrate and a reference GlyT1 inhibitor e.g. 10 μM RG-1678 (Pinard et al., 2010, J. Med. Chem. 53(12):4603-14).
Compounds are diluted from 10 mM stocks and in general, for IC50 determination 8 compound concentrations are used.

Compound	IC50 [nM]
C[C@H](Oc1ccc(S(C)(=O)=O)cc1C(=O)N1CC2CC2(c2noc(C(F)(F)F)n2)C1)C(F)(F)F (mixture of isomers) [Example 1, [5-Methanesulfonyl-2-(2,2,2-trifluoro-1-methyl-ethoxy)-phenyl]-[1-(5-trifluoromethyl-[1,2,4]oxadiazol-3-yl)-3-aza-bicyclo[3.1.0]hex-3-yl]-methanone]	39
Cc1nc(C23CC2CN(C(=O)c2cc(S(C)(=O)=O)ccc2O[C@@H](C)C(F)(F)F)C3)no1 (mixture of isomers) [Example 6, [5-Methanesulfonyl-2-(2,2,2-trifluoro-1-methyl-ethoxy)-phenyl]-[1-(5-methyl-[1,2,4]oxadiazol-3-yl)-3-aza-bicyclo[3.1.0]hex-3-yl]-methanone]	16.5
C[C@H](Oc1ccc(S(C)(=O)=O)cc1C(=O)N1CC2CC2(c2noc(C3CC3)n2)C1)C(F)(F)F (mixture of isomers) [Example 9, [1-(5-Cyclopropyl-[1,2,4]oxadiazol-3-yl)-3-aza-bicyclo[3.1.0]hex-3-yl]-[5-methanesulfonyl-2-(2,2,2-trifluoro-1-methyl-ethoxy)-phenyl]-methanone]	18
C[C@H](Oc1ccc(S(C)(=O)=O)cc1C(=O)N1CC2CC2(c2noc(C(C)(C)C(F)(F)F)n2)C1)C(F)(F)F (mixture of isomers) [Example 12, [5-Methanesulfonyl-2-(2,2,2-trifluoro-1-methyl-ethoxy)-phenyl]-{1-[5-(2,2,2-trifluoro-1,1-dimethyl-ethyl)-[1,2,4]oxadiazol-3-yl]-3-aza-bicyclo[3.1.0]hex-3-yl}-methanone]	18
C[C@H](Oc1ccc(S(C)(=O)=O)cc1C(=O)N1CC2CC2(c2noc(C3CC(F)(F)C3)n2)C1)C(F)(F)F (mixture of isomers) [Example 13, {1-[5-(3,3-Difluoro-cyclobutyl)-[1,2,4]oxadiazol-3-yl]-3-aza-bicyclo[3.1.0]hex-3-yl}-[5-methanesulfonyl-2-(2,2,2-trifluoro-1-methyl-ethoxy)-phenyl]-methanone]	9

Next, values leading:

IC50 [nM]	Compound
67	C[C@H](Oc1ccc(S(C)(=O)=O)cc1C(=O)N1CC2CC2(c2ncccn2)C1)C(F)(F)F (mixture of isomers) [Example 14, [5-Methanesulfonyl-2-(2,2,2-trifluoro-1-methyl-ethoxy)-phenyl]-(1-pyrimidin-2-yl-3-aza-bicyclo[3.1.0]hex-3-yl)-methanone]
14	C[C@H](Oc1ccc(S(C)(=O)=O)cc1C(=O)N1CC2CC2(c2nccc(C(F)(F)F)n2)C1)C(F)(F)F (mixture of isomers) [Example 15, [5-Methanesulfonyl-2-(2,2,2-trifluoro-1-methyl-ethoxy)-phenyl]-[1-(4-trifluoromethyl-pyrimidin-2-yl)-3-aza-bicyclo[3.1.0]hex-3-yl]-methanone]
101	C[C@H](Oc1ccc(S(C)(=O)=O)cc1C(=O)N1CC2CC2(c2ncco2)C1)C(F)(F)F (mixture of isomers) [Example 20, [5-Methanesulfonyl-2-(2,2,2-trifluoro-1-methyl-ethoxy)-phenyl]-(1-oxazol-2-yl-3-aza-bicyclo[3.1.0]hex-3-yl)-methanone]
21	Cc1cnc(C23CC2CN(C(=O)c2cc(S(C)(=O)=O)ccc2O[C@@H](C)C(F)(F)F)C3)o1 (mixture of isomers) [Example 21, [5-Methanesulfonyl-2-(2,2,2-trifluoro-1-methyl-ethoxy)-phenyl]-[1-(5-methyl-oxazol-2-yl)-3-aza-bicyclo[3.1.0]hex-3-yl]-methanone]
911	C[C@H](Oc1ccc(S(C)(=O)=O)cc1C(=O)N1CC2CC2(c2cn3ccccc3n2)C1)C(F)(F)F (mixture of isomers) [Example 24, (1-Imidazo[1,2-a]pyridin-2-yl-3-aza-bicyclo[3.1.0]hex-3-yl)-[5-methanesulfonyl-2-(2,2,2-trifluoro-1-methyl-1-ethoxy)-phenyl]-methanone]
22	Cc1nc(C23CC2CN(C(=O)c2cc(S(C)(=O)=O)ccc2O[C@@H](C)C(F)(F)F)C3)cs1 (mixture of isomers) [Example 25, [5-Methanesulfonyl-2-(2,2,2-trifluoro-1-methyl-ethoxy)-phenyl]-[1-(2-methyl-thiazol-4-yl)-3-aza-bicyclo[3.1.0]hex-3-yl]-methanone]
